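Compound exposure: 48 hours, 5 concentrations, 96-well plates. GI50 marks 50% less growth.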 The source made the active and inactive calls. Cut-off read from the data, not from the text of the source: active = GI50 up to about 1.1 µM and inactive = higher.
Legend:
Test in all cases: NCI anticancer screen, dose series, 48 h
OVCAR-3 = tested on: OVCAR-3
A498 = tested on: A498
SN12C = tested on: SN12C
SR = tested on: SR
OVCAR-4 = tested on: OVCAR-4
IGROV-1 = tested on: IGROV-1
M14 = tested on: M14
SF-295 = tested on: SF-295
UO-31 = tested on: UO-31
SK-MEL-2 = tested on: SK-MEL-2
DU-145 = tested on: DU-145
KM12 = tested on: KM12
T47D = tested on: T47D
HT-29 = tested on: HT-29
UACC-62 = tested on: UACC-62
Malme-3M = tested on: Malme-3M
EKVX = tested on: EKVX
SK-MEL-5 = tested on: SK-MEL-5
CCRF-CEM = tested on: CCRF-CEM
MOLT-4 = tested on: MOLT-4

Measured: GI50

Cl/C(=N\c1cccc2ccccc12)N(c1ccccc1)c1ccccc1
inactive: OVCAR-3 60.1 µM | A498 > 100 µM | SN12C > 100 µM | SR 25.4 µM | OVCAR-4 > 100 µM | IGROV-1 > 100 µM | M14 43 µM | SF-295 67.6 µM | UO-31 > 100 µM | SK-MEL-2 > 100 µM | DU-145 > 100 µM | KM12 75 µM | T47D 61.4 µM | HT-29 52.7 µM | UACC-62 75.2 µM | Malme-3M 39 µM

CC(=O)c1c(C)n(C)c2c1nnc1ccccc12
inactive: OVCAR-3 > 100 µM | A498 21.1 µM | SN12C 40.3 µM | EKVX 12.8 µM | SK-MEL-5 32 µM | OVCAR-4 > 100 µM | CCRF-CEM 54.2 µM | M14 67.8 µM | SF-295 40.2 µM | UO-31 3.15 µM | SK-MEL-2 > 100 µM | DU-145 80.5 µM | KM12 47.6 µM | T47D > 100 µM | HT-29 34.1 µM | UACC-62 23.1 µM | Malme-3M 39.5 µM

O=c1oc2ccc([N+](=O)[O-])cc2c(Nc2ccc3c(c2)Sc2ccccc2O3)c1[N+](=O)[O-]
inactive: OVCAR-3 15.9 µM | SN12C 20 µM | EKVX 25.9 µM | SK-MEL-5 20.3 µM | SR 22.5 µM | OVCAR-4 32.3 µM | CCRF-CEM 18.9 µM | IGROV-1 21.6 µM | M14 19.4 µM | SF-295 38.2 µM | UO-31 22.6 µM | SK-MEL-2 20.4 µM | DU-145 36.7 µM | KM12 21.5 µM | T47D 40.7 µM | HT-29 27.2 µM | UACC-62 15 µM | Malme-3M 30.7 µM

CCCCCCCCCCCCc1ccsc1-c1ccc(-c2ccc(-c3sccc3CCCCCCCCCCCC)s2)s1
inactive: OVCAR-3 > 100 µM | A498 > 100 µM | SN12C > 100 µM | EKVX > 100 µM | SK-MEL-5 > 100 µM | SR > 100 µM | CCRF-CEM > 100 µM | MOLT-4 > 100 µM | IGROV-1 > 100 µM | M14 > 100 µM | SF-295 > 100 µM | UO-31 > 100 µM | SK-MEL-2 > 100 µM | DU-145 > 100 µM | KM12 > 100 µM | T47D > 100 µM | HT-29 > 100 µM | UACC-62 > 100 µM

Cc1cnc2c(c1C)C(=O)c1ccccc1C2=O
inactive: OVCAR-3 3.48 µM | A498 > 100 µM | SN12C 28.6 µM | EKVX 37.8 µM | SK-MEL-5 11.8 µM | SR 38 µM | OVCAR-4 18.8 µM | CCRF-CEM 69.8 µM | MOLT-4 28.3 µM | IGROV-1 32.6 µM | M14 69 µM | SF-295 50.2 µM | UO-31 21.2 µM | SK-MEL-2 63.5 µM | DU-145 > 100 µM | KM12 44.6 µM | T47D 70.5 µM | HT-29 37.2 µM

CSc1ccc(C(=O)C(=O)c2ccc(SC)s2)s1
inactive: OVCAR-3 > 10 µM | SN12C > 10 µM | EKVX > 10 µM | SK-MEL-5 > 10 µM | SR 3.92 µM | OVCAR-4 7.24 µM | CCRF-CEM 3.15 µM | MOLT-4 2.51 µM | IGROV-1 > 10 µM | M14 > 10 µM | SF-295 > 10 µM | UO-31 > 10 µM | SK-MEL-2 > 10 µM | DU-145 > 10 µM | KM12 > 10 µM | T47D > 10 µM | HT-29 > 10 µM | UACC-62 > 10 µM

Nc1ccccc1SC(C[N+](=O)[O-])c1ccc2c(c1)OCO2 (configuration not stated)
inactive: OVCAR-3 3.28 µM | A498 8.39 µM | SN12C 3.37 µM | EKVX 3.89 µM | SK-MEL-5 3.26 µM | SR 1.91 µM | OVCAR-4 11.6 µM | MOLT-4 2.3 µM | IGROV-1 1.51 µM | M14 1.62 µM | SF-295 4.89 µM | UO-31 1.87 µM | SK-MEL-2 14.6 µM | DU-145 2.62 µM | KM12 2.44 µM | T47D 4.18 µM | HT-29 1.89 µM | UACC-62 13.2 µM | Malme-3M 15.7 µM

O=C(NC(Nc1ccc(F)c(Cl)c1)(C(F)(F)F)C(F)(F)F)OCc1ccccc1
inactive: OVCAR-3 17.3 µM | A498 37.2 µM | SN12C 31.2 µM | EKVX 26.4 µM | SK-MEL-5 44.1 µM | SR 11 µM | CCRF-CEM 15.8 µM | MOLT-4 26.4 µM | IGROV-1 39 µM | M14 37 µM | SF-295 28.2 µM | UO-31 19.8 µM | SK-MEL-2 69.3 µM | DU-145 24.4 µM | KM12 36.3 µM | T47D 28.1 µM | HT-29 34 µM | UACC-62 17.7 µM | Malme-3M 43.5 µM

CNC(=O)C(C)C1C(=O)/C(=C(O)/C=C\C(C)=C\C(C)C2OC3(C)OC(C=CC34CO4)C2C)C(=O)N1C1CCC(O)C(C)O1 (configuration not stated)
inactive: OVCAR-3 > 100 µM | A498 > 100 µM | SN12C > 100 µM | EKVX > 100 µM | SK-MEL-5 > 100 µM | SR > 100 µM | CCRF-CEM > 100 µM | MOLT-4 > 100 µM | IGROV-1 > 100 µM | M14 > 100 µM | UO-31 > 100 µM | SK-MEL-2 > 100 µM | DU-145 > 100 µM | KM12 > 100 µM | T47D > 100 µM | HT-29 > 100 µM | UACC-62 > 100 µM | Malme-3M > 100 µM

C/C=C(/CBr)CCC(Br)C(C)(C)Cl.C/C=C(\CBr)CCC(Br)C(C)(C)Cl (configuration not stated)
inactive: OVCAR-3 > 10 µM | A498 > 10 µM | SN12C > 10 µM | EKVX > 10 µM | SK-MEL-5 > 10 µM | OVCAR-4 > 10 µM | CCRF-CEM > 10 µM | MOLT-4 > 10 µM | IGROV-1 > 10 µM | M14 > 10 µM | SF-295 > 10 µM | UO-31 > 10 µM | SK-MEL-2 > 10 µM | DU-145 > 10 µM | KM12 > 10 µM | T47D > 10 µM | HT-29 > 10 µM | Malme-3M > 10 µM

O=C1CC(c2ccc([N+](=O)[O-])cc2)C2(C(=O)NC(=S)NC2=O)C(c2ccc([N+](=O)[O-])cc2)C1 (configuration not stated)
inactive: OVCAR-3 32 µM | A498 32.4 µM | SN12C 21.5 µM | EKVX 32.7 µM | SK-MEL-5 31.3 µM | SR 52.2 µM | OVCAR-4 45.7 µM | CCRF-CEM 27.7 µM | MOLT-4 73.3 µM | IGROV-1 16.3 µM | M14 19 µM | SF-295 25.5 µM | UO-31 25.4 µM | DU-145 31.8 µM | KM12 18.5 µM | T47D 51.3 µM | HT-29 59.8 µM | UACC-62 14.8 µM | Malme-3M 12.2 µM

CC1=C(C(=O)OCCc2ccc([N+](=O)[O-])cc2)C(c2ccccc2[N+](=O)[O-])C(C(=O)OC(C)C)=C(C)N1 (configuration not stated)
inactive: OVCAR-3 5.08 µM | SN12C 6.87 µM | EKVX 2.36 µM | SK-MEL-5 2.24 µM | SR 2.94 µM | OVCAR-4 37.9 µM | CCRF-CEM 2.36 µM | MOLT-4 1.99 µM | IGROV-1 7.05 µM | M14 4.05 µM | SF-295 2.74 µM | UO-31 4.2 µM | SK-MEL-2 3.86 µM | DU-145 9.04 µM | KM12 3.48 µM | T47D 3.9 µM | HT-29 5.07 µM | UACC-62 4.29 µM | Malme-3M 7.19 µM

CC1(C)S[C@@H]2[C@H](NC(=O)/C=C/c3ccccc3)C(=O)N2[C@H]1C(=O)O
inactive: OVCAR-3 > 100 µM | SN12C > 100 µM | SK-MEL-5 > 100 µM | SR > 100 µM | OVCAR-4 > 100 µM | CCRF-CEM > 100 µM | MOLT-4 > 100 µM | IGROV-1 > 100 µM | M14 > 100 µM | SF-295 > 100 µM | UO-31 > 100 µM | SK-MEL-2 > 100 µM | DU-145 > 100 µM | KM12 > 100 µM | T47D > 100 µM | HT-29 > 100 µM | UACC-62 > 100 µM | Malme-3M > 100 µM

CNC(=O)c1nn[nH]c1O
inactive: A498 > 100 µM | SN12C > 100 µM | EKVX > 100 µM | SK-MEL-5 > 100 µM | SR > 100 µM | CCRF-CEM > 100 µM | MOLT-4 > 100 µM | IGROV-1 > 100 µM | M14 > 100 µM | SF-295 > 100 µM | UO-31 > 100 µM | SK-MEL-2 > 100 µM | DU-145 > 100 µM | KM12 > 100 µM | T47D > 100 µM | HT-29 > 100 µM | UACC-62 > 100 µM | Malme-3M > 100 µM

CC1CCC2C(C(=O)O[C@H]3C4C=CO[C@@H](OC5OC(CO)C(O)C(O)C5O)C4[C@@]4(CO)O[C@@H]34)=CO[C@@H](OC3OC(CO)C(O)C(O)C3O)C12 (some centres not stated)
inactive: OVCAR-3 > 10 µM | A498 > 10 µM | SN12C > 10 µM | EKVX > 10 µM | SK-MEL-5 > 10 µM | OVCAR-4 > 10 µM | CCRF-CEM > 10 µM | MOLT-4 > 10 µM | IGROV-1 > 10 µM | M14 > 10 µM | SF-295 > 10 µM | UO-31 > 10 µM | SK-MEL-2 > 10 µM | DU-145 > 10 µM | KM12 > 10 µM | T47D > 10 µM | HT-29 > 10 µM | UACC-62 > 10 µM | Malme-3M > 10 µM

Source: ChEMBL document CHEMBL1201862, “PubChem BioAssay data set” (2004)
